Data reported in PubChem BioAssay AID1053163 (Broad Institute, 2014).

System: HepG2 + U0126, LDLR mRNA qRT-PCR, 6 h
Experiment: MEK-dependence of LDLR transcript upregulation – cell-based, HepG2, U0126, RT-PCR, mechanism study for Trib1 inducer project, late-stage follow-up (AID 1053163)
Conditions: stronger effect = higher value

SMILES | LDLR mRNA fold induction
CN1C(=O)c2cc(NC(=O)c3ccc(C(F)(F)F)cc3)ccc2OC[C@@H]2O[C@@H](CC(=O)NC3Cc4ccccc4C3)CC[C@@H]21 | 10
CN1C(=O)c2cc(NC(=O)c3ccc(C(F)(F)F)cc3)ccc2OC[C@@H]2O[C@H](CC(=O)NC3Cc4ccccc4C3)CC[C@@H]21 | 2.5
